Laboratory results published in paper PMC3335822 (PLoS ONE, 2012).
Each block holds one compound with its values, some of them ahead of it.

Experiments:
[1] = test system: MCF10A-EYA2 cells; experiment: Transwell migration of MCF10A cells over-expressing EYA2; format: cell-based; settings: for effect on migration of MCF10A(EYA2) cells: 7.5 μM
Description: (§1) Human umbilical vein endothelial cells (HUVECs) were purchased from Lonza (Walkersville, MD) and maintained in the endothelial cell growth medium (PromoCell, Heidelberg, Germany), under a 5% CO2 atmosphere. MCF10A cells from ATCC were stably transfected with either pcDNA 3.2/V5-DEST (vector control), V5-EYA2 or V5-EYA2(mut). Transwell migration experiments were performed as previously described.

[2] = test system: HUVECs; experiment: HUVEC transwell migration; format: cell-based, human; settings: 5 μM
Description: as §1

[3] = cited from earlier work
[4] = parameters: method as in PMID 20214587; settings: cited from earlier work
[5] = test system: CYP2C9; parameters: method as in PMID 20214587; settings: cited from earlier work
[6] = target: T1, Eya3(ED) (Mus musculus, UniProt P97480); experiment: pNPP hydrolysis by the catalytic domain of Eya3; format: biochemical
T1 construct: The catalytic domain (ED) of mouse Eyes Absent 3 (Eya3(223–510)) was purified; made in house
T1 sequence (P97480 223-510): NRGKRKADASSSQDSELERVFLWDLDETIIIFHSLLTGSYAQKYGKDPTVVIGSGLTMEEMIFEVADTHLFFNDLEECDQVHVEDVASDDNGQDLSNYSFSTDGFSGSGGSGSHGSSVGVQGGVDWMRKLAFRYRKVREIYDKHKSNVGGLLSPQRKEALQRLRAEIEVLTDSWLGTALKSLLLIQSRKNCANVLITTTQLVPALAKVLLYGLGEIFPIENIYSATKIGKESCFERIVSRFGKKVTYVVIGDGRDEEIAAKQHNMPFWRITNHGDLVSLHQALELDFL
Text: The catalytic domain (ED) of mouse Eyes Absent 3 (Eya3(223–510)) was purified as described before. Human Eyes Absent 3 isoform 2 (representing the major species identified in human cell lines by mass spectrometry and residues 127–573 of NM_001990, isoform 1) was sub-cloned into pDEST565 to express a poly-histidine- Glutathione-S-transferase (His-GST) tagged fusion protein with a TVMV protease site. The protein was purified by glutathione-S-transferase affinity chromatography followed by TVMV cleavage, Ni-NTA chromatography, and finally size exclusion chromatography.
The NCI Diversity Set II was obtained from the NCI in 96-well trays from the NIH Molecular Libraries Program and stored as 10 mM stocks in DMSO. An initial manual screen was conducted using the previously described p-nitrophenylphosphate assay and mouse Eya3(223–510) in a reaction mixture containing 20 mM MES pH 6, 2 mM MgCl2, 125 μM inhibitor, 3.4 mM para-nitrophenol phosphate (pNPP) and 0.01 μg/µL enzyme.
(§2) Compounds were dissolved in DMSO and diluted as needed. […] Reactions were incubated at 30°C for 30 minutes and quenched with 100 mM EDTA pH 10. IC50 values were then calculated directly from regression curves using PRISM. All reported values are the mean of two independent experiments.

[7] = target: T2, PTP1B (Homo sapiens, UniProt P18031); experiment: pNPP hydrolysis by PTP1B; format: biochemical; settings: substrate pNPP
T2 construct: made in house
T2 sequence (P18031 1-435): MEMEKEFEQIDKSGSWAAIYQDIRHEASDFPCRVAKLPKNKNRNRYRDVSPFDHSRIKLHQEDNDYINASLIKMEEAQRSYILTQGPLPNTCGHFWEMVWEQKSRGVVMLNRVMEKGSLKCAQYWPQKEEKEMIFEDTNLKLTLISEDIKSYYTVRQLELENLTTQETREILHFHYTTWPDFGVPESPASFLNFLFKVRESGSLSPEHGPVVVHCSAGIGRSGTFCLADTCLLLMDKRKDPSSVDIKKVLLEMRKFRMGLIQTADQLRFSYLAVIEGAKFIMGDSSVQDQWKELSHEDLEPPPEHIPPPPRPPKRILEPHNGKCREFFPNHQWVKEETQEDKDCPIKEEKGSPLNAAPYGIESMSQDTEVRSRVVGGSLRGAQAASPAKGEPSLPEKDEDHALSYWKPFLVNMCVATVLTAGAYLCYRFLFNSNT
Description: The catalytic domain of human Eyes Absent 2 was similarly sub-cloned as a poly-histidine fusion construct in the vector pDEST-527. Fusion protein was purified by Ni-NTA chromatography and followed by size-exclusion chromatography over a Superdex-75 column. The relative purity of protein samples was determined using SDS-PAGE. PTP1B was purified as described previously.
as §2

[8] = test system: zebrafish embryos; experiment: Analysis of zebrafish vasculature, Tg(kdrl:EGFP) embryos; format: in vivo; settings: exposure from about 5 hpf, analysis at 28–30 hpf
Description: Tg(kdrl:EGFP)^s843 zebrafish line was used for vascular analysis. Embryos were maintained in fish water until the 50% epiboly stage (5.25 hpf) and were transferred into wells of 24-well plate containing the inhibitors in fish water. All incubation was performed at 28.5°C. The analysis for vascular defects was performed at the 28–30 hpf stages, and embryos were imaged using a fluorescence microscope.

[9] = test system: urate transporter SLC22A12 (URAT1); parameters: method as in PMID 21272127; settings: cited from earlier work
[10] = test system: mouse aortic rings; experiment: Mouse aortic ring assay (ex vivo sprouting angiogenesis, VEGF-stimulated); settings: 5 μM, 10 days
Description: The preparation of rat collagen and the aortic ring assay were carried out as previously described, [50]. Mice were 4 to 6 week old female C57BL/6, and aortic ring explants were cultured at 37°C in a humidified incubator under a 5% CO2 atmosphere.
Each inhibitor was serially diluted (between 0.25 mM and 7.5 mM) to stocks of 1000× the working concentrations in sterile 100% DMSO in order to achieve an equal final concentration of DMSO (0.1% v/v) in all culture conditions. For the experiments, the compounds were diluted in EBM containing 2.5% FBS, penicillin/streptomycin and 20 ng/ml VEGF165 (R&D Systems, Minneapolis, MN). Each compound was applied from the first day of culture over a 10-day period with medium change every two days. In all experiments, the vehicle (DMSO, 0.1%) was used as control. The sprouting density was derived from counting the number of branches per ring, and the extent of angiogenic sprouting was estimated by measuring the total surface area covered by the vessels.

Compound: CCc1oc2ccccc2c1C(=O)c1ccc(O)cc1 [Compound 1a, Benzarone]
reduction of cell motility ([1]; 1 μM (lowest concentration tested), MCF10A-EYA2): over 50% | effect on migration of MCF10A(EYA2) cells [1]: significantly inhibited cell migration | effect on HUVEC cell motility [2]: attenuated HUVEC cell motility | half-life [3]: about 3 hours | hepatotoxicity [4]: reported hepatotoxicity | inhibition of CYP2C9 [5]: inhibit CYP2C9 | IC50 ([6]; substrate pNPP 3.4 mM, pH 6, 30°C, 30 minutes): 19.2 µM | IC50 [7]: > 150 µM | effect on the developing vasculature [8]: reduced the number of intersegmental vessels, but were less potent | inhibition of URAT1 [9]: inhibition of the urate transporter SLC22A12 (URAT1) | effect on sprouting of aortic rings [10]: shorter sprouts and significantly lower microvascular density

mode of inhibition of Eya3(ED) ([6]; pNPP substrate titration): uncompetitive inhibitor | IC50 [7]: 53.8 µM
Compound: CCc1oc2ccccc2c1C(=O)c1cc(Br)c(O)c(Br)c1 [Compound 1, Benzbromarone]
effect on migration of MCF10A(EYA2) cells [1]: significantly inhibited cell migration | effect on HUVEC cell motility [2]: attenuated HUVEC cell motility | half-life [3]: about 3 hours | hepatotoxicity [4]: reported hepatotoxicity | inhibition of CYP2C9 [5]: inhibit CYP2C9 | effect on the developing vasculature [8]: significant reduction of intersegmental vessels even at the lowest dose tested (0.25 μM) | inhibition of URAT1 [9]: inhibition of the urate transporter SLC22A12 (URAT1) | effect on sprouting of aortic rings [10]: shorter sprouts and significantly lower microvascular density
